{"source": "paper PMC9804781", "about": "“Identification of a Novel Pseudo‐Natural Product Type IV IDO1 Inhibitor Chemotype” (Angewandte Chemie (International Ed. in English), 2022)", "key": {"[1]": {"molecular_target": "T1, His-tagged IDO2 (Homo sapiens, UniProt Q6ZQW0)", "T1 construct": "His; purchased BPS Bioscience 72035 (kit)", "T1 sequence (Q6ZQW0 1-407)": "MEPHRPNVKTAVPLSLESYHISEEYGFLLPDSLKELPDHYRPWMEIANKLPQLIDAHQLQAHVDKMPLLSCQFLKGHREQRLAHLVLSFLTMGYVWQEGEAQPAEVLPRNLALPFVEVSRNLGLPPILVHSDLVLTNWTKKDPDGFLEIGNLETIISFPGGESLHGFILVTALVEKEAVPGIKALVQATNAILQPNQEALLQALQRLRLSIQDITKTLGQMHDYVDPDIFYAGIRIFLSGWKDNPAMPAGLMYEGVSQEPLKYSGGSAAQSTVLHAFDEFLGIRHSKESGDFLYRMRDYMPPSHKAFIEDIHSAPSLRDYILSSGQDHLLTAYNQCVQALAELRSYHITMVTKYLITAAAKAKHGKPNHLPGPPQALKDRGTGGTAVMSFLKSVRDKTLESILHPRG", "experiment": "IDO2 Activity Assay", "assay_type": "biochemical", "settings": "50 µM; 90 min + 120 min at 30 °C", "procedure": "Inhibition of indoleamine 2,3-dioxygenase 2 (IDO2) was tested using the Universal IDO1/IDO2/TDO Inhibitor Screening Assay Kit (cat# 72035, BPS Bioscience, US). 10 µg His-tagged IDO2 in IDO2 Assay Buffer was incubated with Complete IDO2 Reaction Solution (1% (v/v) component 2 in component 1) and 50 µM Test Inhibitor (0.5% (v/v) DMSO) for 90 min at 30°C with slow shaking in the dark prior to initiation of the reaction by addition of 20% (v/v) IDO2 Substrate. Samples were incubated for 120 min at 30°C with slow shaking in the dark. Afterwards, absorbance at 321 nm was recorded on the Spark® Multimode Microplate Reader (Tecan, AT), all values were subtracted by the background and normalized to the DMSO control."}, "[2]": {"molecular_target": "T2, His-tagged TDO (Homo sapiens, UniProt P48775)", "T2 construct": "His; purchased BPS Bioscience 72035 (kit)", "T2 sequence (P48775 whole entry)": "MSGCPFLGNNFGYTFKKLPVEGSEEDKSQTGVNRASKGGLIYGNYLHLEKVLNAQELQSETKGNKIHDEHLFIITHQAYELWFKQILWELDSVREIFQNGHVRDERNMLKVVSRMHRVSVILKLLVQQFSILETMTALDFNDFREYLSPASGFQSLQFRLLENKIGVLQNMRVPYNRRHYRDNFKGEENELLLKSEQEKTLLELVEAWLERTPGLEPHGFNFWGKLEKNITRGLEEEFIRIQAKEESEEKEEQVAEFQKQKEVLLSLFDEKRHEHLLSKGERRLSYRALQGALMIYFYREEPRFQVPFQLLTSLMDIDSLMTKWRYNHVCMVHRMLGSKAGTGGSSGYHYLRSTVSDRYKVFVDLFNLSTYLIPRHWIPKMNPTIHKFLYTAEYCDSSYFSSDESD", "experiment": "TDO Activity Assay", "assay_type": "biochemical", "settings": "50 µM; 120 min at 37 °C", "procedure": "Inhibition of tryptophan 2,3-dioxygenase (TDO) was tested using the Universal IDO1/IDO2/TDO Inhibitor Screening Assay Kit (cat# 72035, BPS Bioscience, US). 500 ng His-tagged TDO in TDO Assay Buffer was incubated with Reaction Solution and 50 µM Test Inhibitor (0.5% (v/v) DMSO) for 120 min at 37°C with slow shaking in the dark. Afterwards, absorbance at 321 nm was recorded on the Spark® Multimode Microplate Reader (Tecan, AT), all values were subtracted by the background and normalized to the DMSO control. […]\n(v/v) component 2 in component 1) and 50 µM Test Inhibitor (0.5% (v/v) DMSO) for 90 min at 30°C with slow shaking in the dark prior to initiation of the reaction by addition of 20% (v/v) IDO2 Substrate. Samples were incubated for 120 min at 30°C with slow shaking in the dark. […]"}, "[3]": {"system": "IDO1 promoter", "experiment": "IDO1 promoter reporter gene assay in HEK293T cells", "assay_type": "cell-based", "settings": "IFN-γ, 48 h", "procedure": "GraphPad Prism 9.0 (GraphPad Software, Inc, US) to generate dose-response curves and obtain […]\nIDO1 promoter reporter gene assay\nHEK293T cells (25,000 cells/well) were reverse-transfected with pXPG-IDO1[16] (4 µg/96-well plate, kindly provided by Gina M. Doody, Leeds, UK) and pRL-TK (300 ng/96-well plate, Promega, US) using Lipofectamine™ 2000 (Invitrogen, USA) pri or to incubation for 24 h. Afterwards, cells were treated with 50 ng/mL IFN-γ and the compounds for 48 h. Luminescence generated by the Fluc reporter and the control reporter Rluc was measured using the Dual-Glo ® Luciferase Assay System (Promega, US) on the Spark® Multimode Microplate Reader (Tecan, AT). To determine the IDO1 promoter activity, Fluc signals were divided by Rluc signals and normalized to the values of the DMSO control. Data analysis was performed using a non-linear regression curve fit and […]\nBxPC-3 cells (30,000 cells/well) were seeded in 96-well plates in Trp-free RPMI 1640 medium and incubated for 48 h prior addition of 50 ng/mL IFN-γ. […]\nThe supernatant was transferred to a new plate, trichloroacetic acid was added to a final concentration of 7% (v/v) and plates were incubated for 15 min at room temperature. Samples were centrifuged for 10 min at 1800 x g and L-Trp was quantified by HPLC-MS/MS using the LTQ Velos Pro and Dionex HPLC (Thermo Fisher Scientific, US). […]"}}}
{"smiles": "CCOC(=O)C1=CC[C@](C(=O)OC)(c2cc3ccccc3n2C)N(S(=O)(=O)c2ccc(C)cc2)[C@@H]1C(=O)OC(C)(C)C", "note": "[Compound 3d]", "values": [{"measurement": "inhibition of IDO2 (result in words)", "setting": "[1]", "value": "did not inhibit"}, {"measurement": "inhibition of TDO (result in words)", "setting": "[2]", "value": "did not inhibit"}, {"measurement": "expression of the Fluc reporter under IDO1 promoter", "setting": "[3]", "value": "did not reduce the expression of the reporter"}]}
